Our source for the EC (150% of control) and melting point values is US9284321B2, “Piperazino[1,2-a]indol-1-ones and [1,4]diazepino[1,2-a]indol-1-one” (Hoffmann-La Roche Inc., priority 2012, dated 2016).

Data set [1] has as its system human embryonic stem cell derived neural stem cells (NSCs). Kind of data set: Neural Stem Cell Proliferation Assay (neurogenesis assay, ATP levels by CellTiterGlo). The class given is cell-based. Conditions: 96 h, compound concentration at which 150% activity of control (100%) is reached, NSC proliferation by ATP level after 4 days incubation, dose response 8 μM to 8 nM. An outline of the steps: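 Human ESC-derived NSCs (dual SMAD inhibition) seeded 4 h before compounds, 11-point 2-fold series 8 μM–8 nM; 4 days at 37 °C, 5% CO2. ATP by CellTiterGlo luminescence as cell-number proxy, response as % of media control (0.25% DMSO); EC150 = concentration giving 150% of control.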
In general terms: Cellular ATP, detected with luciferase, serves as a proxy for viable cell number.

The term melting point denotes the temperature, or range, at which the solid turns liquid.

As to `COc1ccc(-c2cc(Cl)cc3cc4n(c23)CCNC4=O)cc1` [Example 52, 8-Chloro-6-(4-methoxy-phenyl)-3,4-dihydro-2H-pyrazino[1,2-a]indol-1-one], the melting point worked out at 282.5 °C. The molecule also returned an EC (150% of control) in data set [1] of 0.022 µM.
In turn, `CS(=O)(=O)c1ccc(-c2cc(C#N)cc3cc4n(c23)CCCNC4=O)cc1` [Example 256, 7-(4-Methylsulfonylphenyl)-1-oxo-2,3,4,5-tetrahydro-[1,4]diazepino[1,2-a]indole-9-carbonitrile] came in with a melting point of 305.5 °C. This molecule also displayed an EC (150% of control) in data set [1] of 1.42 µM.
With `O=C1NCCCn2c1cc1cc(Cl)cc(-c3ccc(Cl)cc3)c12` [Example 53, 9-Chloro-7-(4-chloro-phenyl)-2,3,4,5-tetrahydro-[1,4]diazepino[1,2-a]indol-1-one], the melting point was 237 °C. For the same molecule, in data set [1], the EC (150% of control) turned out to be 0.15 µM.
The molecule `Cc1ccc(-c2cc(Cl)cc3cc4n(c23)CCCNC4=O)cc1` [Example 47, 9-Chloro-7-p-tolyl-2,3,4,5-tetrahydro-[1,4]diazepino[1,2-a]indol-1-one] gave a melting point of 227 °C. Besides, in data set [1], the EC (150% of control) was found to be 0.6 µM.
The corresponding values for `Cc1c2n(c3c(-c4ccnc(F)c4)cc(Cl)cc13)CCNC2=O` [Example 108, 8-Chloro-6-(2-fluoro-pyridin-4-yl)-10-methyl-3,4-dihydro-2H-pyrazino[1,2-a]indol-1-one] are 290.5 °C and 0.021 µM.
The corresponding values for `N#Cc1cc(-c2cc(F)cc(F)c2)c2c(c1)cc1n2CCCNC1=O` [Example 238, 7-(3,5-Difluorophenyl)-1-oxo-2,3,4,5-tetrahydro-[1,4]diazepino[1,2-a]indole-9-carbonitrile] are 211 °C and 1 µM.
In turn, `Cc1c2n(c3c(-c4ccc(F)c(F)c4)cc(C#N)cc13)CCCNC2=O` [Example 196, 7-(3,4-Difluorophenyl)-11-methyl-1-oxo-2,3,4,5-tetrahydro-[1,4]diazepino[1,2-a]indole-9-carbonitrile] gave a melting point of 278 °C. The molecule also registered an EC (150% of control) in data set [1] of 0.086 µM.
Take `Cc1c2n(c3c(-c4ccc(F)cc4)cc(F)cc13)CCNC2=O` [Example 74, 8-Fluoro-6-(4-fluoro-phenyl)-10-methyl-3,4-dihydro-2H-pyrazino[1,2-a]indol-1-one]: the melting point turned out to be 182 °C. The molecule further yielded an EC (150% of control) in data set [1] of 0.072 µM.
As for `Cc1c2n(c3c(-c4ccc(Cl)cc4Cl)cc(Cl)cc13)CCNC2=O` [Example 102, 8-Chloro-6-(2,4-dichloro-phenyl)-10-methyl-3,4-dihydro-2H-pyrazino[1,2-a]indol-1-one], the melting point is 213 °C. Further, the EC (150% of control) in data set [1] stood at 0.009 µM.
Take `N#Cc1cc(-c2cc(F)c(F)c(F)c2)c2c(c1)cc1n2CCCNC1=O` [Example 248, 1-Oxo-7-(3,4,5-trifluorophenyl)-2,3,4,5-tetrahydro-[1,4]diazepino[1,2-a]indole-9-carbonitrile]: the melting point amounted to 248.5 °C. In addition, in data set [1], the EC (150% of control) came out at 0.62 µM.
The molecule `Cc1c2n(c3c(-c4ccc(Cl)c(Cl)c4)cc(C#N)cc13)CCNC2=O` [Example 260, 6-(3,4-Dichlorophenyl)-10-methyl-1-oxo-3,4-dihydro-2H-pyrazino[1,2-a]indole-8-carbonitrile] displayed a melting point of 245 °C. In addition, in data set [1], the EC (150% of control) came out at 0.12 µM.
`COc1ccc(-c2cc(F)cc3c(C)c4n(c23)CCNC4=O)cc1` [Example 75, 8-Fluoro-6-(4-methoxy-phenyl)-10-methyl-3,4-dihydro-2H-pyrazino[1,2-a]indol-1-one]: the melting point is 237 °C. This molecule also gave an EC (150% of control) in data set [1] of 0.005 µM.
As for `Cc1c2n(c3c(-c4ccc(N(C)C)cc4)cc(F)cc13)CCNC2=O` [Example 145, 6-(4-Dimethylamino-phenyl)-8-fluoro-10-methyl-3,4-dihydro-2H-pyrazino[1,2-a]indol-1-one], the melting point stood at 256 °C. The EC (150% of control) in data set [1] was determined as 0.017 µM.
